Holding throughout (assay): growth of human tumour cells (NCI), 48 h
Assay [1] relates to A549.
For assay [2], the system named is CAKI-1.
For assay [3], the system named is HOP-92.
Assay [4] relates to LOX IMVI.
Assay [5] concerns M14.
Assay [6] has as its system MCF7.
Assay [7] concerns MDA-N.
In assay [8] the test system is OVCAR-8.
Assay [9] relates to PC-3.
Assay [10] deals with RPMI-8226.
The subject of assay [11] is SF-539.
For assay [12], the system named is SK-MEL-2.
Assay [13] relates to SK-OV-3.
Assay [14] concerns SN12C.
Assay [15] concerns SNB-75.
Assay [16] relates to U-251.
The subject of assay [17] is OVCAR-4.
The test system of assay [18] is TK-10.

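In this assay, cells in 96-well plates receive the compound at five concentrations for 48 hours. Endpoints are linearly interpolated between the surrounding concentrations. GI50 marks 50% less growth.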 Calls of active or inactive are those of the source. Cut-off read from the data, not from the text of the source: active = GI50 up to about 1.1 µM and inactive = higher.

Turning to `COc1ccc(CC2NC(=O)/C=C/CC(C(C)C3OC3c3ccccc3)OC(=O)C(CC(C)C)OC(=O)C(C)CNC2=O)cc1Cl` (stereo not drawn), the GI50 in [1] is < 1e-05 µM (active); in assay [2], 1.01e-05 µM (active); in assay [3] it was 0.000205 µM (active); in [4], < 1e-05 µM (active); in [5], 1.04e-05 µM (active); in assay [6], 1.34e-05 µM (active). Further, the GI50 in assay [7] is < 1e-05 µM (active); in assay [8], 2.32e-05 µM (active); in assay [9] it was 1.04e-05 µM (active); in assay [10], 3.62e-05 µM (active); in [11], 1.34e-05 µM (active); in assay [12] it was 0.001 µM (active). Also, the GI50 in [13] is 6.68e-05 µM (active); in assay [14], 2.38e-05 µM (active); in [15] it was 2.83e-05 µM (active); in assay [16], 2.56e-05 µM (active).
For `CC(=O)NC(=N/N=C1/C(=O)Nc2ccc(C)cc21)NC(C)=O`, the GI50 in [1], in assay [2], in [3], in [4], in assay [5] and in assay [6] was > 100 µM (inactive) in each case. The GI50 in assay [7], in assay [17], in assay [8], in [9], in [10] and in assay [12] was > 100 µM (inactive) in each case. Further, the GI50 was > 100 µM (inactive) in assay [13]; > 100 µM (inactive) in assay [14]; 31.6 µM (inactive) in assay [15]; > 100 µM (inactive) in assay [18]; > 100 µM (inactive) in assay [16].
As for `COc1cc(OC)c2c(=O)cc(-c3ccccc3F)[nH]c2c1`, the GI50 is 38.5 µM (inactive) in [1]; 61.5 µM (inactive) in [2]; > 100 µM (inactive) in [3]; 61.1 µM (inactive) in assay [4]; 39.1 µM (inactive) in assay [5]; 54.5 µM (inactive) in assay [6]. The GI50 in assay [7] is 25.8 µM (inactive); in [17], 14.2 µM (inactive); in [8] it was 51.4 µM (inactive); in assay [9] it was 47.2 µM (inactive); in [10], 57.8 µM (inactive); in assay [12], > 100 µM (inactive). Further, the GI50 in assay [13] was 91.2 µM (inactive); in assay [14], > 100 µM (inactive); in assay [15], 33.9 µM (inactive); in [18], 39.9 µM (inactive); in assay [16], 35.8 µM (inactive).
As for `COc1cccc(C2c3cc4c(cc3OC(NNC(N)=O)C2C)OCO4)c1OC` (stereo not drawn), the GI50 in [1] is 19.6 µM (inactive); in assay [2], 24.5 µM (inactive); in assay [3] it was 19.1 µM (inactive); in assay [4], 19.1 µM (inactive); in assay [5], 17.1 µM (inactive); in assay [6], 31 µM (inactive). The GI50 in [7] was 18 µM (inactive); in [8], 4.32 µM (inactive); in assay [9], 19.4 µM (inactive); in assay [10], 13 µM (inactive); in assay [11], 15.4 µM (inactive); in [12], 20.5 µM (inactive). The GI50 was 34.2 µM (inactive) in assay [13]; 27 µM (inactive) in assay [14]; 15.8 µM (inactive) in [15]; 28.9 µM (inactive) in assay [18]; 20 µM (inactive) in assay [16].
With `O=C(O)c1ccc(Nc2nc3cc(C(F)(F)F)ccc3n3cccc23)cc1`, the GI50 in assay [1] was 30.5 µM (inactive); in [2], 47.3 µM (inactive); in [3] it was 64.6 µM (inactive); in [4], 10.2 µM (inactive); in assay [5], 25.1 µM (inactive); in [6], 35.6 µM (inactive). The GI50 in assay [7] was 54.6 µM (inactive); in assay [8] it was 49.5 µM (inactive); in assay [9] it was 25.5 µM (inactive); in [10], 12.5 µM (inactive); in assay [11], 23.3 µM (inactive); in assay [12], 31.3 µM (inactive). For the same compound, the GI50 was 40.1 µM (inactive) in assay [13], 24.1 µM (inactive) in assay [15], 28.2 µM (inactive) in [18] and 21.3 µM (inactive) in assay [16].

For the origin of these results see ChEMBL document CHEMBL1201862, “PubChem BioAssay data set” (2004).
